The values that follow are results of earlier work, collected in US20070093966A1, “Drug candidate selection by hydrogen exchange characterization of ligand-induced receptor conformation” (ExSAR CORPORATION, priority 2004, published 2007).

The subject of this data set is endogenous gene CAP in 3T3-L1 adipocytes. Particulars: Camp et al.

Consider `Cc1c(C)c2c(c(C)c1O)CCC(C)(COc1ccc(CC3SC(=O)NC3=O)cc1)O2` (stereo not shown) [troglitazone], for which the “agonist profile, induction of the endogenous gene CAP” value was “full agonist”.
